Reference: US20170037028A1 (BAYER PHARMA AKTIENGESELLSCHAFT, priority 2013, published 2017)

Target: T1, GLUT1 (Homo sapiens, UniProt P11166)
T1 sequence (P11166 1-492): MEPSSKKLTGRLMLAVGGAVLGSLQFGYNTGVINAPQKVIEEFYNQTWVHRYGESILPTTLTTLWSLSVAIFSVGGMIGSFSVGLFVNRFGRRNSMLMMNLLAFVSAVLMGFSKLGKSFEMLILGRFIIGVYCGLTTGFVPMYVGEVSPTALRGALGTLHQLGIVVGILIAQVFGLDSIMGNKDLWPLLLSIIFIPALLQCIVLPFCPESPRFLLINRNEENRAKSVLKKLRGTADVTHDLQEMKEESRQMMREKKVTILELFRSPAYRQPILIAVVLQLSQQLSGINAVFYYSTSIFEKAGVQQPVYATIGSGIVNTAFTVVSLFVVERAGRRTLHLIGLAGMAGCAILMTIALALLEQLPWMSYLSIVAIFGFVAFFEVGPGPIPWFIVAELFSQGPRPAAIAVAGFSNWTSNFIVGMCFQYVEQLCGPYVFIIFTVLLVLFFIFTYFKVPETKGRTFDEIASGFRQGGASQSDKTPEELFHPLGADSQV
Test: Indirect measurement of GLUT1 activity by quantification of intracellular ATP levels (glucose induced ATP increase)
Type: cell-based
Set-up: endogenous in cells; host or cells: DLD1 or CHO-K1
Details: read-out: IC50 regarding glucose induced ATP increase (GLUT1 inhibition)
Method in brief: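 DLD1 or CHO-K1 cells were starved overnight in glucose-free medium with 1% FCS, then combined with an oxidative phosphorylation inhibitor. GLUT1 activity was read as glucose-induced ATP increase, GLUT2 as fructose-induced. Intracellular ATP was quantified by CellTiter-Glo luminescence.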

SMILES | IC50 [nM]
Cc1nn(Cc2ccc(F)cc2)c(C)c1NC(=O)c1cc(C(F)(F)F)nc2cc(F)c(Br)cc12 [Example 124, 6-bromo-7-fluoro-N-[1-(4-fluorobenzyl)-3,5-dimethyl-1H-pyrazol-4-yl]-2-(trifluoromethyl)quinoline-4-carboxamide] | 2.3
Cc1nn(Cc2ccc(F)cc2)c(C)c1NC(=O)c1cc(C2CC2)nc2ccc(Cl)cc12 [Example 125, 6-chloro-2-cyclopropyl-N-[1-(4-fluorobenzyl)-3,5-dimethyl-1H-pyrazol-4-yl]quinoline-4-carboxamide] | 2.5
Cc1nn(Cc2ccc(F)cc2)c(C)c1NC(=O)c1cc(C(N)=O)nc2c(Cl)cc(Cl)cc12 [Example 127, 6,8-dichloro-N^4-[1-(4-fluorobenzyl)-3,5-dimethyl-1H-pyrazol-4-yl]quinoline-2,4-dicarboxamide] | 3.1
Cc1c(NC(=O)c2cc(C(N)=O)nc3ccccc23)c(C(F)(F)F)nn1Cc1ccc(F)c(F)c1 [Example 128, N^4-[1-(3,4-difluorobenzyl)-5-methyl-3-(trifluoromethyl)-1H-pyrazol-4-yl]quinoline-2,4-dicarboxamide] | 3.3
Cc1nn(Cc2ccc(F)c(F)c2)c(C)c1NC(=O)c1cc(C(C)C)nc2ccc(Br)cc12 [Example 129, 6-bromo-N-[1-(3,4-difluorobenzyl)-3,5-dimethyl-1H-pyrazol-4-yl]-2-(propan-2-yl)quinoline-4-carboxamide] | 4.1
Cc1c(NC(=O)c2cc(C(N)=O)nc3ccccc23)c(C(F)(F)F)nn1Cc1ccc(F)cc1 [Example 130, N^4-[1-(4-fluorobenzyl)-5-methyl-3-(trifluoromethyl)-1H-pyrazol-4-yl]quinoline-2,4-dicarboxamide] | 4.6
COC(=O)c1ccc(Cn2nc(C)c(NC(=O)c3cc(C(F)(F)F)nc4ccc(Br)cc34)c2C)cc1 [Example 131, methyl 4-{[4-({[6-bromo-2-(trifluoromethyl)quinolin-4-yl]carbonyl}amino)-3,5-dimethyl-1H-pyrazol-1-yl]methyl}benzoate] | 8.3
Cc1nn(Cc2ccc(C(=O)O)cc2)c(C)c1NC(=O)c1cc(C(F)(F)F)nc2ccc(Br)cc12 [Example 132, 4-{[4-({[6-bromo-2-(trifluoromethyl)quinolin-4-yl]carbonyl}amino)-3,5-dimethyl-1H-pyrazol-1-yl]methyl}benzoic acid] | 5560
Cc1nn(Cc2ccc(C(N)=O)cc2)c(C)c1NC(=O)c1cc(C(F)(F)F)nc2ccc(Br)cc12 [Example 133, 6-bromo-N-[1-(4-carbamoylbenzyl)-3,5-dimethyl-1H-pyrazol-4-yl]-2-(trifluoromethyl)quinoline-4-carboxamide] | 5.6
Cc1nn(Cc2ccc(C(=O)Nc3ccccc3)cc2)c(C)c1NC(=O)c1cc(C(F)(F)F)nc2ccc(Br)cc12 [Example 134, 6-bromo-N-{3,5-dimethyl-1-[4-(phenylcarbamoyl)benzyl]-1H-pyrazol-4-yl}-2-(trifluoromethyl)quinoline-4-carboxamide] | 6.6
CNC(=O)c1ccc(Cn2nc(C)c(NC(=O)c3cc(C(F)(F)F)nc4ccc(Br)cc34)c2C)cc1 [Example 135, 6-bromo-N-{3,5-dimethyl-1-[4-(methylcarbamoyl)benzyl]-1H-pyrazol-4-yl}-2-(trifluoromethyl)quinoline-4-carboxamide] | 8.1
Cc1nn(Cc2ccc(C(=O)NCCN3CCOCC3)cc2)c(C)c1NC(=O)c1cc(C(F)(F)F)nc2ccc(Br)cc12 [Example 136, 6-bromo-N-[3,5-dimethyl-1-(4-{[2-(morpholin-4-yl)ethyl]carbamoyl}benzyl)-1H-pyrazol-4-yl]-2-(trifluoromethyl)quinoline-4-carboxamide] | 9
COCCNC(=O)c1ccc(Cn2nc(C)c(NC(=O)c3cc(C(F)(F)F)nc4ccc(Br)cc34)c2C)cc1 [Example 137, 6-bromo-N-(1-{4-[(2-methoxyethyl)carbamoyl]benzyl}-3,5-dimethyl-1H-pyrazol-4-yl)-2-(trifluoromethyl)quinoline-4-carboxamide] | 10.7
Cc1nn(Cc2ccc(C(=O)NCc3cccnc3)cc2)c(C)c1NC(=O)c1cc(C(F)(F)F)nc2ccc(Br)cc12 [Example 138, 6-bromo-N-(3,5-dimethyl-1-{4-[(pyridin-3-ylmethyl)carbamoyl]benzyl}-1H-pyrazol-4-yl)-2-(trifluoromethyl)quinoline-4-carboxamide] | 18.1
Cc1nn(Cc2ccc(C(=O)NCCO)cc2)c(C)c1NC(=O)c1cc(C(F)(F)F)nc2ccc(Br)cc12 [Example 139, 6-bromo-N-(1-{4-[(2-hydroxyethyl)carbamoyl]benzyl}-3,5-dimethyl-1H-pyrazol-4-yl)-2-(trifluoromethyl)quinoline-4-carboxamide] | 31.7
Cc1nn(Cc2ccc(C(=O)NCc3ccccc3)cc2)c(C)c1NC(=O)c1cc(C(F)(F)F)nc2ccc(Br)cc12 [Example 140, N-{1-[4-(benzylcarbamoyl)benzyl]-3,5-dimethyl-1H-pyrazol-4-yl}-6-bromo-2-(trifluoromethyl)quinoline-4-carboxamide] | 50
Cc1nn(Cc2ccc(C(=O)N3CCOCC3)cc2)c(C)c1NC(=O)c1cc(C(F)(F)F)nc2ccc(Br)cc12 [Example 141, 6-bromo-N-{3,5-dimethyl-1-[4-(morpholin-4-ylcarbonyl)benzyl]-1H-pyrazol-4-yl}-2-(trifluoromethyl)quinoline-4-carboxamide] | 69.4
Cc1nn(Cc2ccc(C(=O)NCCN(C)C)cc2)c(C)c1NC(=O)c1cc(C(F)(F)F)nc2ccc(Br)cc12 [Example 142, 6-bromo-N-[1-(4-{[2-(dimethylamino)ethyl]carbamoyl}benzyl)-3,5-dimethyl-1H-pyrazol-4-yl]-2-(trifluoromethyl)quinoline-4-carboxamide] | 70.7
Cc1nn(Cc2ccc(C(=O)N(C)C)cc2)c(C)c1NC(=O)c1cc(C(F)(F)F)nc2ccc(Br)cc12 [Example 143, 6-bromo-N-{1-[4-(dimethylcarbamoyl)benzyl]-3,5-dimethyl-1H-pyrazol-4-yl}-2-(trifluoromethyl)quinoline-4-carboxamide] | 85.3
Cc1nn(Cc2ccc(F)c(F)c2)c(C)c1NC(=O)c1cc(C2CCC2)nc2ccc(Br)cc12 [Example 144, 6-bromo-2-cyclobutyl-N-[1-(3,4-difluorobenzyl)-3,5-dimethyl-1H-pyrazol-4-yl]quinoline-4-carboxamide] | 5.7
Cc1nn(Cc2ccc(F)c(F)c2)c(C)c1NC(=O)c1cc(C2CC2)nc2ccc(Cl)cc12 [Example 145, 6-chloro-2-cyclopropyl-N-[1-(3,4-difluorobenzyl)-3,5-dimethyl-1H-pyrazol-4-yl]quinoline-4-carboxamide] | 6.1
Cc1nn(Cc2ccc(F)cc2)c(C)c1NC(=O)c1cc(C2CCC2)nc2ccc(Br)cc12 [Example 146, 6-bromo-2-cyclobutyl-N-[1-(4-fluorobenzyl)-3,5-dimethyl-1H-pyrazol-4-yl]quinoline-4-carboxamide] | 7.9
Cc1nn(Cc2ccc(C#N)nc2)c(C)c1NC(=O)c1cc(C(F)(F)F)nc2ccc(Br)cc12 [Example 147, 6-bromo-N-{1-[(6-cyanopyridin-3-yl)methyl]-3,5-dimethyl-1H-pyrazol-4-yl}-2-(trifluoromethyl)quinoline-4-carboxamide] | 8.2
Cc1nn(Cc2ccc(Cl)cc2)c(C)c1NC(=O)c1cc(C(F)(F)F)nc2ccc(Br)cc12 [Example 148, 6-bromo-N-[1-(4-chlorobenzyl)-3,5-dimethyl-1H-pyrazol-4-yl]-2-(trifluoromethyl)quinoline-4-carboxamide] | 11.4
COC(=O)c1ccc2nc(C(F)(F)F)cc(C(=O)Nc3c(C)nn(Cc4ccc(F)cc4)c3C)c2c1 [Example 149, methyl 4-{[1-(4-fluorobenzyl)-3,5-dimethyl-1H-pyrazol-4-yl]carbamoyl}-2-(trifluoromethyl)quinoline-6-carboxylate] | 11.7
COC(=O)Cc1ccc(Cn2nc(C)c(NC(=O)c3cc(C(F)(F)F)nc4ccc(Br)cc34)c2C)cc1 [Example 150, methyl (4-{[4-({[6-bromo-2-(trifluoromethyl)quinolin-4-yl]carbonyl}amino)-3,5-dimethyl-1H-pyrazol-1-yl]methyl}phenyl)acetate] | 11.7
Cc1nn(Cc2ccc(CC(=O)O)cc2)c(C)c1NC(=O)c1cc(C(F)(F)F)nc2ccc(Br)cc12 [Example 151, (4-{[4-({[6-bromo-2-(trifluoromethyl)quinolin-4-yl]carbonyl}amino)-3,5-dimethyl-1H-pyrazol-1-yl]methyl}phenyl)acetic acid] | 1280
Cc1nn(Cc2ccc(CC(N)=O)cc2)c(C)c1NC(=O)c1cc(C(F)(F)F)nc2ccc(Br)cc12 [Example 152, N-{1-[4-(2-amino-2-oxoethyl)benzyl]-3,5-dimethyl-1H-pyrazol-4-yl}-6-bromo-2-(trifluoromethyl)quinoline-4-carboxamide] | 58.3
CNC(=O)Cc1ccc(Cn2nc(C)c(NC(=O)c3cc(C(F)(F)F)nc4ccc(Br)cc34)c2C)cc1 [Example 153, 6-bromo-N-(3,5-dimethyl-1-{4-[2-(methylamino)-2-oxoethyl]benzyl}-1H-pyrazol-4-yl)-2-(trifluoromethyl)quinoline-4-carboxamide] | 95.8
